Results on 11 molecules are retold here after PMC3672920, “Sulfated Metabolites of Polychlorinated Biphenyls Are High-Affinity Ligands for the Thyroid Hormone Transport Protein Transthyretin” (Environmental Health Perspectives, 2013).

The test system of one series is T1, recombinant hSULT1A1.
T1 construct: purchased Xenotech; host or cells: E. coli
Briefly: Sulfotransferase assay (PAP formation, HPLC). The series is classed as in vitro ADME, human. To be noted: 200 µM PAPS, 37°C, pH 7.0, 10 min; for substrate for human SULT1A1: 0, 10, 20 or 30 µM OH-PCB, cytosolic extract of E. coli expressing hSULT1A1; for specific activity (rate of sulfation) with hSULT1A1, ranking in words: 10–30 µM OH-PCB. The procedure: Sulfotransferase assay. The assays for sulfation of OH-PCBs catalyzed by hSULT1A1 were conducted according to a previously published procedure ([Liu et al. 2009]). Assay mixtures containing 0, 10, 20, or 30 µM of the potential substrate were preincubated at 37°C in the presence of 200 µM PAPS and 7.5 mM 2-mercaptoethanol in 250 mM potassium phosphate at pH 7.0. After adding 1 µL of cytosolic extract of E. coli expressing hSULT1A1 (10 µg cytosolic protein), the reaction mixture (total volume 30 µL) was incubated for 10 min before the reaction was terminated by the addition of 30 µL methanol. Samples (20 µL) were subsequently analyzed by HPLC to determine the amount of PAP formed in the reaction ([Sheng et al. 2001]).

For a further series, the target named is T2, TTR (Homo sapiens, UniProt P02766).
T2 construct: TTR purified from human plasma (> 95%); purchased Sigma-Aldrich; host or cells: human plasma
Kind of series: HPLC analysis of PCB sulfates after incubation with TTR (stability, reversibility). To be noted: 5 µM PCB sulfate, 0.5 µM TTR, phosphate buffer pH 7.4, 25°C, up to 120 min. The series is classed as physicochemical. Here is the method:
HPLC analysis of PCB sulfates. TTR (0.5 µM) and PCB sulfate (5 µM) were incubated in phosphate buffer (50 mM sodium phosphate, 100 mM NaCl; pH 7.4) at 25°C (± 0.5°C) for 120 min. After 0, 60, and 120 min, 20 µL samples were analyzed for PCB sulfates by chromatography on a C18 HPLC column with a linear acetonitrile gradient (15–95%) in triethylammonium acetate (1% vol/vol; pH 7.5). Detailed HPLC conditions and representative chromatograms are provided in Supplemental Material, Figure S3 (http://dx.doi.org/10.1289/ehp.1206198).
Supplemental Material, Fi g u r e S6: PCB sulfates are stable upon incubation with TTR, and the interaction is non-covalent. 5µM samples of PCB sulfates were incubated for up t o 120 […]
sodium phosphate, 100 mM NaCl, pH 7.4) at 25 °C. Their quantitative recover y (as compared to a corresponding 5 µM PCB sulfate standard) by HPLC indicated non- covalent binding interactions between PCB sulfates and TTR.
(1 picture or pasted object on this page, not shown here)

Series [1] has as its target T3, TTR purified from human plasma (Homo sapiens, UniProt P02766).
T3 construct: TTR purified from human plasma (> 95%); purchased Sigma-Aldrich; host or cells: human plasma
Kind of series: ANS displacement assay (fluorescence probe displacement) for binding to TTR. The conditions noted are these: low-affinity (second) binding site on TTR; ligand ≤ 2,000 nM; all data points fit to two-site binding equation; read-out: Kd2. Here is the method:
Three fluorescence measurements were averaged per determination, and at least three separate determinations were made at each ligand concentration. The protocol was optimized for ligand concentrations of ≤ 2,000 nM, and assays were conducted at 25°C (± 0.2°C) in quartz cuvettes with a 1-cm path length. […] Binding data were evaluated by fitting the means of each determination to both a one-site plus nonspecific binding equation [y = (Bmax1 × x)/(Kd1 + x) + Ns] and a two-site binding equation [y = (Bmax1 × x)/(Kd1 + x) + (Bmax2 × x)/(Kd2 + x)]. In these equations, Kd1 is the dissociation constant for the TTR-ligand complex and Kd2 is the dissociation constant for the TTR complex with two bound ligands, Bmax1 and Bmax2 are the relative changes in fluorescence required to saturate the respective binding sites and Ns is a constant representing low-affinity interactions. […] The variables x and y represent ligand concentrations and changes in fluorescence (Δ fluorescence), respectively. […] In order to determine Kd2 values, all available data points were fit to the two-site binding equation.

Structures are written as SMILES. Structures can show the parent of a compound that is named as a salt.

The melting point is the temperature, or range, at which the solid turns liquid. Regarding `O=S(=O)(O)Oc1ccc(-c2cccc(Cl)c2)cc1Cl` (as salt: ammonium) [4´PCB 11 sulfate, 3,3´-dichloro-4´-sulfooxy-biphenyl], the melting point is 220 °C (dec.).
`Oc1ccccc1-c1ccc(Cl)cc1` [2´OH-PCB 3, 4´-chloro-biphenyl-2-ol]: in the series on recombinant hSULT1A1, the “substrate for human SULT1A1” value is “substrates” and the “specific activity (rate of sulfation) with hSULT1A1, ranking in words” value (“specific activity (rate of sulfation)” below) is given as “highest specific activities”.
As to `O=S(=O)(O)Oc1ccccc1-c1ccc(Cl)cc1` [2´PCB 3 sulfate, 2´-sulfooxy-4-chloro-biphenyl], the “recovery of PCB sulfate by HPLC after incubation with TTR (stability)” value (shortened to “recovery of PCB sulfate by HPLC”) at TTR was “quantitatively recovered”.
`Oc1cccc(-c2ccc(Cl)cc2)c1` [3´OH-PCB 3, 4´-chloro-biphenyl-3-ol]: in the series with recombinant hSULT1A1, the “substrate for human SULT1A1” value is listed as “substrates” and the “specific activity (rate of sulfation)” value is given as “highest specific activities”.
Take `O=S(=O)(O)Oc1cccc(-c2ccc(Cl)cc2)c1` [3´PCB 3 sulfate, 3´-sulfooxy-4-chloro-biphenyl]: the “recovery of PCB sulfate by HPLC” value at TTR is listed as “quantitatively recovered”.
Consider `Oc1ccc(-c2ccc(Cl)cc2)cc1` [4´OH-PCB 3, 4´-chloro-biphenyl-4-ol], for which, in the series with recombinant hSULT1A1, the “substrate for human SULT1A1” value was “substrates” and the “specific activity (rate of sulfation)” value is “slightly lower specific activities”.
For `Oc1ccc(-c2cccc(Cl)c2)cc1Cl` [4´OH-PCB 11, 3,3´-dichloro-biphenyl-4-ol], in the series on recombinant hSULT1A1, the “substrate for human SULT1A1” value is on record as “substrates” and the “specific activity (rate of sulfation)” value is given as “slightly lower specific activities”. Further, in series [1], the Kd worked out at 0.624 ± 0.207 µM.
Turning to `Oc1ccc(-c2ccc(Cl)c(Cl)c2)cc1` [4´OH-PCB 12, 3´,4´-dichloro-biphenyl-4-ol], in the series on recombinant hSULT1A1, the “substrate for human SULT1A1” value is “substrates” and the “specific activity (rate of sulfation)” value was “slightly lower specific activities”. In addition, the Kd in series [1] was 0.825 ± 0.047 µM.
On to `O=S(=O)(O)Oc1ccc(-c2ccc(Cl)cc2)cc1` [4´PCB 3 sulfate, 4-chloro-4´-sulfooxy-biphenyl], for which the “recovery of PCB sulfate by HPLC” value on TTR is on record as “quantitatively recovered”.
Regarding `O=S(=O)(O)Oc1ccc(-c2cccc(Cl)c2)cc1Cl` [4´PCB 11 sulfate, 3,3´-dichloro-4´-sulfooxy-biphenyl], the “recovery of PCB sulfate by HPLC” value on TTR was “quantitatively recovered”. In addition, the Kd in series [1] was determined as 0.624 ± 0.063 µM.
In the case of `O=S(=O)(O)Oc1ccc(-c2ccc(Cl)c(Cl)c2)cc1` [4´PCB 12 sulfate, 3,4-dichloro-4´-sulfooxy-biphenyl], the “recovery of PCB sulfate by HPLC” value on TTR was “quantitatively recovered”. In series [1], the Kd was 0.742 ± 0.058 µM.
